Experiments:
Experiment in all cases: Primer extension on site-specific 71-mer monoadduct template
Type in all cases: biochemical
Conditions in all cases: 37°C for 0, 5 or 15 minutes, PAGE, autoradiography
E. Coli DNA Polymerase = tested on: E. Coli DNA Polymerase
From the text: (§1) The sequences that are presented in Figure 26 describe several oligonucleotides that are used in the synthesis of either a normal 71-mer or the identical 71-mer containing a site-specifically placed psoralen or isopsoralen monoadduct. The 71-mer is a sub-sequence of the Human Immunodeficiency Virus (HIV) sequence. (An HIV DNA system is described in a co-pending application, Serial No. 225,725.) SK-39 is a primer oligonucleotide that is complementary to the 3' end of the 71-mers. This primer oligonucleotide can be extended on the 71-mer template to make a complementary strand of the 71-mer.
(§2) Preparation of 71-mers which contain site-specific monoadducts involves 1) preparation of different 15-mer monoadducts from the same unmodified 15-mer (HRI-42), and 2) ligation of the different 15-mer monoadducts to the same 56-mer "extender oligonucleotide" (HRI 102) using a 25-mer oligonucleotide (HRI-45) as a splint. The arrows in Figure 27 indicate the direction of synthesis, while the monoadduct is indicated by a short line that is perpendicular to the oligomer. While each of the 71-mer monoadducts contains the adduct at a base position that is greater than 56 bases from the 5' end, the precise position of the monoadduct is not meant to be indicated.
(§3) To prepare the 15-mer adducts, the 15-mer was incubated with a complementary 10-mer along with psoralen or isopsoralen under hybridization conditions. The mixture was then irradiated to provide the monoadducted 15-mer. While the invention is not dependent on knowing the precise mechanism of coupling, it has generally been believed that the 10-mer directs the isopsoralen to a single TpA site within the double-stranded helix formed by the 10-mer/15-mer hybrid. After isolation of an HPLC peak believed to contain the 15-mer with a single psoralen or isopsoralen monoadduct, these 15-mer monoadducts were ligated to a 56-mer extender in order to provide the monoadducted 71-mers for use as polymerase templates. The ligation reaction therefore utilized three oligonucleotides: the particular psoralen or isopsoralen monoadducted 15-mer, the 56-mer extender, and the 25-mer splint. The ligation complex was hybridized together then ligated. The ligated product was then isolated as a single band by denaturing PAGE.
(§4) To provide highly purified 71-mers which contain a single monoadduct, it was necessary to provide highly purified 15-mer monoadduct prior to the ligation step. This was accomplished by repurification of the HPLC purified monoadducted 15-mers by PAGE. In this way, essentially all the non-monoadducted 15-mer was removed prior to ligation. Separation of 15-mer monoadduct from unmodified 15-mer was readily accomplished by PAGE (while the same technique is not effective for separation of the corresponding unmodified 71-mer and monoadducted 71-mer sequences). In this manner, exceedingly pure monoadducted 71-mers were produced for the primer extension reactions; monoadducted 71-mers (as well as unmodified 71-mers) are used in template-dependent enzymatic extension experiments in examples 43-47 below.
(§5) In this experiment, monoadducted 71-mers (as well as unmodified 71-mers) were used in template-dependent enzymatic extension. AMIP, AMDMIP, and MIP 71-mer monoadducts were made as in Example 17. […] Note that the 3' end of the 71-mer (HRI 55) is complementary to the primer (SK-39) (see also Figure 26). Each of the extension experiments were run at 37°C for 0, 5 or 15 minutes. Each of the reactions were initiated by providing the templates and deoxyribonucleoside 5'-triphosphates (dATP, dGTP, dCTP, and dTTP are collective abbreviated as dNTPs), and by adding the particular polymerase last to start the reaction. For detection, the primer extension reaction utilized 5' ^32P-labelled primer. The reactions were stopped by adding EDTA. Analysis was by denaturing PAGE followed by autoradiography. […]

Klenow Polmerase = tested on: Klenow Polmerase
From the text: as §1, §2, §3, §4, §5

Reverse Transcriptase = tested on: Reverse Transcriptase
From the text: as §1, §2, §3, §4, §5

T4 Polymerase = tested on: T4 Polymerase
From the text: as §1, §2, §3, §4, §5

Chain of E. Coli DNA Polymerase (P00582 whole entry): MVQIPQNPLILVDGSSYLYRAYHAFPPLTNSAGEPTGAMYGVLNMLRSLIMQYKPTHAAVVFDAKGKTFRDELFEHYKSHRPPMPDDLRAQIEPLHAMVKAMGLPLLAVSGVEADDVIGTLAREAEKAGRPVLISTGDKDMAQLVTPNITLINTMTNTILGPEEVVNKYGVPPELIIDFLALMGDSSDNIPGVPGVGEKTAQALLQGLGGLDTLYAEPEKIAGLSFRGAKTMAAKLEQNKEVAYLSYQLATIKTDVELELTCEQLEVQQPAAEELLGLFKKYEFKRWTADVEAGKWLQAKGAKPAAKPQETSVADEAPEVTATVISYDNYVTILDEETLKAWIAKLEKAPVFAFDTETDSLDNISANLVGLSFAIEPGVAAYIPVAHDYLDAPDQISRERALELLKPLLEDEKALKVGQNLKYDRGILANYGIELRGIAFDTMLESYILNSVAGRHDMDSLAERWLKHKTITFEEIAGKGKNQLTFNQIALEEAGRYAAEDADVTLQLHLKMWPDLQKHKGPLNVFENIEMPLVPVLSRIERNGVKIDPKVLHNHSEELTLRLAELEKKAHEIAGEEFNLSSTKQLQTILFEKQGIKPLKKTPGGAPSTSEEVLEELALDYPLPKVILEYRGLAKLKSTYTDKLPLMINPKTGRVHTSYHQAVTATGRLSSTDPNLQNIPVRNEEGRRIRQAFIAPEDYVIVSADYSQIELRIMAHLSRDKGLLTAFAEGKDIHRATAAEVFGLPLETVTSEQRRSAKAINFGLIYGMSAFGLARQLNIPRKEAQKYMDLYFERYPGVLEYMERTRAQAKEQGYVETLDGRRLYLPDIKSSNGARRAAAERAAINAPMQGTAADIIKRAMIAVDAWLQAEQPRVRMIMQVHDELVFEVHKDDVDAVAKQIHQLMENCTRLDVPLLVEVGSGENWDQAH

Compound | polymerase stop at adduct (primer extension) (E. Coli DNA Polymerase) | polymerase stop at adduct (primer extension) (Klenow Polmerase) | polymerase stop at adduct (primer extension) (Reverse Transcriptase) | polymerase stop at adduct (primer extension) (T4 Polymerase)
5-Aminomethylisopsoralen [AMIP] | not complete stops | not complete stops | complete stops | complete stops
4'-Aminomethyl-4,5'-dimethylisopsoralen [AMDMIP] | complete stop | complete stop | complete stop | complete stop
Cc1cc2occc2c2oc(=O)ccc12 [MIP, 5-Methylisopsoralen] | not complete stops | not complete stops | complete stops | complete stops

Reference: patent EP0497921B1, “METHOD FOR INHIBITING ENZYMATIC SYNTHESIS OF NUCLEIC ACIDS USING ISOPSORALENS” (ISAACS, Stephen T., priority 1989, dated 1991)
